Reference: patent publication US8349366B2, “Immediate release pharmaceutical granule compositions and a continuous process for making them” (Universiteit Gent, priority 2002, dated 2013)

What was measured:
[1] = cited from earlier work
[2] = in vivo; cited from earlier work
[3] = capsules with granulate formulation, surfactants, cyclodextrin, Avicel PH 101 and Primojel (U.S. Pat. No. 5,646,131, example 4); cited from earlier work
[4] = Drug dissolution test of extruded granules or pellets, paddles at 100 rpm, demineralized water, room temperature; assay type: physicochemical; details: paddles 100 rpm
Procedure: The extruded granules were collected, sieved and further analysed for drug dissolution (data shown in FIGS. 1 and 2, formulations B and D). The dissolution test was performed at room temperature by using paddles rotating at 100 rpm, the dissolution medium being demineralized water.

## CC/C(=C(/CC)c1ccc(O)cc1)c1ccc(O)cc1 [diethylstilbestrol]
[1]
  solubility in water (in words): virtually insoluble in water

## CS(=O)(=O)c1ccc([C@@H](O)[C@@H](CF)NC(=O)C(Cl)Cl)cc1 [florfenicol, D-(threo)-1-p-methylsulfonyl phenyl-2-dichloroacetamido-3-fluoro-l-propanol]
[2]
  oral bioavailability: good oral bioavailability

## CC(C)(C)c1ccc(C(O)CCCN2CCC(C(O)(c3ccccc3)c3ccccc3)CC2)cc1 (stereo not drawn) [terfenadine]
[1]
  water-solubility: less than 0.01 mg/ml
[3]
  drug release within 45 minutes: 90%

## Cn1c(=O)c2[nH]cnc2n(C)c1=O [theophylline]
[1]
  water-solubility: 8000 µg/mL

## COc1cc(Cc2cnc(N)nc2N)cc(OC)c1OC [trimethoprim, 2,4-diamino-5-(3,4,5-trimethoxy-benzyl)pyrimidine]
[4]
  drug release after 30 minutes: 38%
